We go through 1 molecule from US10967060B2, “Synergistic combination of immunologic inhibitors for the treatment of cancer” (The University of Chicago, priority 2012, dated 2021).

The subject of the assay is B16-SIY cells. The assay can be described thus: Unaffected fraction (synergy) analysis of tumor growth inhibition of combination therapies. Format: in vivo, C57BL/6 mice. The following applies: for Predicted TGI: expected for purely additive effect. As for the experimental part: Treatment was initiated on day 4 post tumor inoculation with the following regimens for each drug. αCTLA-4 antibody (clone UC10-4F10-11, Bio-X-Cell) was given i.p. on day 4, 7 and 10 at a dose of 100 μg/mouse. αPD-L1 antibody (clone 10F.9G2, Bio-X-Cell) was given i.p. (100 μg/mouse) every other day starting on day 4 ending on day 16 post tumor inoculation. IDOi (INCB23843, Incyte Corporation) was dissolved in 0.5% methylcellulose and administered at 300 mg/kg po QD on a 5 days on/2 days off schedule starting on day 4. In the case of functional experiments with an earlier endpoint, treatment regimens were carried out as described until the day of T cell analysis. A comparison between IDOi and IDOc (INCB24360, Incyte Corporation) was perfomed according to the treatment regime described above. Tumor outgrowth was followed starting day 7 onwards and is depicted in combination with anti-CTLA4 (FIG. 18A) or anti-PD-L1 (FIG. 18B). N=5 mice per group, and a two-way Anova test was used to determine significance between the groups.
Treatment was administered in the same fashion as described for FIG. 9, with the exception that IDOi (INCB23843) was replaced by IDOc (INCB24360) in the indicated groups.
Synergy analysis was performed with day 15 data and with day 23 data. Actual tumor growth inhibition (TGI) is the experimental TGI seen in this experiment for the combinations, and predicted TGI is the TGI that would have been expected for a purely additive combination effect from the performance of the individual agents in this experiment. Actual TGIs higher than predicted TGIs reflect better than additive (synergistic) data.

The mark [1] stands for this setting: Day 15 (end of dosing), in combination with anti CTLA4.
Setting [2] is: Day 15 (end of dosing), in combination with antiPDL1.
Setting [3] is: Day 23 (last day of vehicles), in combination with anti CTLA4.
Setting [4] is: Day 23 (last day of vehicles), in combination with antiPDL1.

Consider `NS(=O)(=O)NCCNc1nonc1/C(=N/O)Nc1ccc(F)c(Br)c1` [IDOc], for which the “Actual TGI” value under setting [1] amounted to 74%, the “Actual TGI” value under setting [2] came to 81%, the “Actual TGI” value under setting [3] turned out to be 93% and the “Actual TGI” value under setting [4] came out at 82%. Further, the “Predicted TGI” value by setting is: under setting [1], 66%; under setting [2], 24%; under setting [3], 65%; under setting [4], 35%.
